Reference: patent US20220192984A1, “PHARMACEUTICAL COMPOSITIONS COMPRISING OTIC THERAPEUTIC AGENTS AND RELATED METHODS” (Frequency Therapeutics, Inc., priority 2018, published 2022)
Counter-ions that a name gives are not always drawn. Like-named read-outs stand apart in the source and are kept apart here. Each block holds one compound with its values, some of them ahead of it.

Columns and labels:
LSD1 [1] = target: T1, LSD1 (Homo sapiens, UniProt O60341); conditions: Table 18; cited from earlier work
MAO A = target: T2, MAO A (Homo sapiens, UniProt P21397); conditions: Table 18, MAO A (first value or marked A); read-out: Select MAOs A and B; cited from earlier work
T2 sequence (P21397 1-527): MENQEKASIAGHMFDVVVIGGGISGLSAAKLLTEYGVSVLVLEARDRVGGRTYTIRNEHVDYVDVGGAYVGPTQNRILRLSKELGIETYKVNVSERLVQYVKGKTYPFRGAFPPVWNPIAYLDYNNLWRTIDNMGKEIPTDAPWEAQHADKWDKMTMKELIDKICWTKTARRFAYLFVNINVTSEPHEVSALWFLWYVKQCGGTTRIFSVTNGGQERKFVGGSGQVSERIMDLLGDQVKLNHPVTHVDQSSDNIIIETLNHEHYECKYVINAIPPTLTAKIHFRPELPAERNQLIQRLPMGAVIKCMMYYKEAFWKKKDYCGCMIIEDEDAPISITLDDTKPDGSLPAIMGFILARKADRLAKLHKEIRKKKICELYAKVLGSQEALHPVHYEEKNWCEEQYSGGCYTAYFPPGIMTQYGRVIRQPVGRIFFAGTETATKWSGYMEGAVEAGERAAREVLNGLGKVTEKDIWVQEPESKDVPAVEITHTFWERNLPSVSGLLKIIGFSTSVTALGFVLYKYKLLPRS

HDAC = conditions: Mechanism HDAC Inhib 1, 2, 3, 8; cited from earlier work
[2] = Perilymph Conc. listed for agents (Tables 14-25)
Lgr5+ cells = assay: Lgr5+ Assay (Lgr5+ cell assay in vitro); format: cell-based
GSK-3 alpha = GSK-3 alpha (Homo sapiens, UniProt P49840); conditions: cited from earlier work
Sequence of GSK-3 alpha (P49840 whole entry): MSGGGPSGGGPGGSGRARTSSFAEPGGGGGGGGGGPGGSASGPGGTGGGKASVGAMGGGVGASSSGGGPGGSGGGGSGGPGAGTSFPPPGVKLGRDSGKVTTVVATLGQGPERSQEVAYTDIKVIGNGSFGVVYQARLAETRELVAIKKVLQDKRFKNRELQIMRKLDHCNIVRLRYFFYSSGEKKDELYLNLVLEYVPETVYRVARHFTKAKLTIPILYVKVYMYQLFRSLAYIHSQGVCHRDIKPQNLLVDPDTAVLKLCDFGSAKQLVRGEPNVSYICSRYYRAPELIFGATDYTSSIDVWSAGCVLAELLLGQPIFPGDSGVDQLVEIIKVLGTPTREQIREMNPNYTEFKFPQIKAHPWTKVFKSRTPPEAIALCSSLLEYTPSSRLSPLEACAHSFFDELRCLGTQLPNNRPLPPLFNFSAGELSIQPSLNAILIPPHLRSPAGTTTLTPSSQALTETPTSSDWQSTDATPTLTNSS

KDM [3] = conditions: cited from earlier work
KDM [4] = conditions: Table 21; cited from earlier work
DOT1L [5] = target: T3, DOT1L (Homo sapiens, UniProt Q8TEK3); conditions: Table 20; read-out: pKi or IC50 (converted); cited from earlier work
T3 sequence (Q8TEK3 whole entry, species assumed): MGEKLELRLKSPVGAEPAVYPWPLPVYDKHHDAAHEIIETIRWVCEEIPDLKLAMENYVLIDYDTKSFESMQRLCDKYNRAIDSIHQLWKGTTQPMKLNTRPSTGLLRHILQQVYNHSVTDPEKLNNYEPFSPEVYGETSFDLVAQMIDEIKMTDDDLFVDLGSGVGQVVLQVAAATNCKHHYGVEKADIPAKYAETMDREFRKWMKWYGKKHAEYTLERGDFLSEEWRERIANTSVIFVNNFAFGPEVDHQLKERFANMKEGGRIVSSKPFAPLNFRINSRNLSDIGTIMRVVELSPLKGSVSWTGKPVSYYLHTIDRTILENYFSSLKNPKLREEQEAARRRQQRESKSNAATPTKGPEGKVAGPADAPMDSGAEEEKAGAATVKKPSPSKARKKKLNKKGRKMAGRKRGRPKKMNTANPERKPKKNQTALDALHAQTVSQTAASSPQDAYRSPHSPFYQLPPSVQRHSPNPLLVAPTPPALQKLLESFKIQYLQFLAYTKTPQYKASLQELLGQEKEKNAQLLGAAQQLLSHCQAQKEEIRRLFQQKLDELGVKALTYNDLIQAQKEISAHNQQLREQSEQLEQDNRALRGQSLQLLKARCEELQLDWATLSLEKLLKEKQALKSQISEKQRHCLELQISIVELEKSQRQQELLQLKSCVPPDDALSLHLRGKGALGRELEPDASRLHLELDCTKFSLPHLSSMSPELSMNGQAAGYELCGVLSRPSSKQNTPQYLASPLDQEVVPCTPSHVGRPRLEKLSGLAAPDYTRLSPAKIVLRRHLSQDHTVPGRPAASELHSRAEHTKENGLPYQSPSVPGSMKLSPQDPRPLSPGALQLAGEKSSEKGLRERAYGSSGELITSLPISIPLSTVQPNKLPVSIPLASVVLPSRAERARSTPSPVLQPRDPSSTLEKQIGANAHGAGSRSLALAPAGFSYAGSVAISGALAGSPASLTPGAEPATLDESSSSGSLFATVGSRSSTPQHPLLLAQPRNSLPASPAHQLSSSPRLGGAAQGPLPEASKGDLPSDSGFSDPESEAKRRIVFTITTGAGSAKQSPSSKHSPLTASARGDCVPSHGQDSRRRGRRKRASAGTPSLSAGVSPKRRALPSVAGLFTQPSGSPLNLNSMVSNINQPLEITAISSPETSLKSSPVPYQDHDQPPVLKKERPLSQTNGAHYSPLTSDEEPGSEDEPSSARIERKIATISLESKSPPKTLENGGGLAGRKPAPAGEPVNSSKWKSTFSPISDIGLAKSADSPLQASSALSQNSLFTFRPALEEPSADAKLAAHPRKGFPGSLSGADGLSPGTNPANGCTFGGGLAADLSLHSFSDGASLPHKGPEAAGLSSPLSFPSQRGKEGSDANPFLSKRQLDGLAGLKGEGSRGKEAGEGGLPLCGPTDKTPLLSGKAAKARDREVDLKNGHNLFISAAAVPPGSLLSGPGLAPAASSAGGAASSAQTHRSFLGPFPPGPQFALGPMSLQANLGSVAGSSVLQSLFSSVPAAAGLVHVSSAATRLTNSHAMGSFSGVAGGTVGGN

MAO B = target: T4, MAO B (Homo sapiens, UniProt P27338); conditions: Table 18, MAO B (second value or marked B); read-out: Select MAOs A and B; cited from earlier work
T4 sequence (P27338 1-520): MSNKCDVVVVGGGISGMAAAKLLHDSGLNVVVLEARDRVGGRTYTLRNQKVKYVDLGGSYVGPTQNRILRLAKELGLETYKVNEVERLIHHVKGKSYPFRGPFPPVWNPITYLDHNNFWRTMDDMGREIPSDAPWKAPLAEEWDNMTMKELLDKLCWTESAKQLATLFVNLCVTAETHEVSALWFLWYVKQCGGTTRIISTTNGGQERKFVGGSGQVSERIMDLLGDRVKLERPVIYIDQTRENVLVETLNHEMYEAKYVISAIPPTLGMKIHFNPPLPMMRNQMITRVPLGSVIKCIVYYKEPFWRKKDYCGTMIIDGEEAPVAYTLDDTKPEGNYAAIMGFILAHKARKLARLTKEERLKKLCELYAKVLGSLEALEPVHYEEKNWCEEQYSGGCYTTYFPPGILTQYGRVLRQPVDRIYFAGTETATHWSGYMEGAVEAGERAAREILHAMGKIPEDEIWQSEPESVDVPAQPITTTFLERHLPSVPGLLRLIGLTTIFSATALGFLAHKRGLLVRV

EZH2 [6] = target: T5, EZH2 (Homo sapiens, UniProt Q15910); conditions: Table 19, EZH2; read-out: pKi or IC50 (converted); cited from earlier work
T5 sequence (Q15910 whole entry, species assumed): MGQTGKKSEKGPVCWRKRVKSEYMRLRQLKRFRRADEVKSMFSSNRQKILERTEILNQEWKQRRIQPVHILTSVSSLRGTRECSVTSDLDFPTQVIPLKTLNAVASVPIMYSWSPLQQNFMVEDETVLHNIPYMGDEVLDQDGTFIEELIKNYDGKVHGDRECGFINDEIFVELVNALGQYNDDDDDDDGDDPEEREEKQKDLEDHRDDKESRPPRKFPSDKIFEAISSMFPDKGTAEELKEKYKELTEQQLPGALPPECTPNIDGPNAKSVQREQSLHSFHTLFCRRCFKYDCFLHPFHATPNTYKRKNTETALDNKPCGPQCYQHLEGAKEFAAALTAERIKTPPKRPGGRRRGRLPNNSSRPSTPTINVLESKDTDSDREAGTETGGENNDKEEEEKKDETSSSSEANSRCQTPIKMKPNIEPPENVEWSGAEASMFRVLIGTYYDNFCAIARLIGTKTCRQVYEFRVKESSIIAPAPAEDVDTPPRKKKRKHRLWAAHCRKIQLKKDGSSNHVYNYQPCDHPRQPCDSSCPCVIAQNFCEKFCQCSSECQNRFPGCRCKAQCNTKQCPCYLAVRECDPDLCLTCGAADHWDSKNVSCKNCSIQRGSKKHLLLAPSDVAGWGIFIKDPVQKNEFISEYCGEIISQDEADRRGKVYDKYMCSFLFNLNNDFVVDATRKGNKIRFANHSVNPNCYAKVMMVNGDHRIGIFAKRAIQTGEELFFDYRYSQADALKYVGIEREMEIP
T5 sequence (O75530 whole entry partner, species assumed): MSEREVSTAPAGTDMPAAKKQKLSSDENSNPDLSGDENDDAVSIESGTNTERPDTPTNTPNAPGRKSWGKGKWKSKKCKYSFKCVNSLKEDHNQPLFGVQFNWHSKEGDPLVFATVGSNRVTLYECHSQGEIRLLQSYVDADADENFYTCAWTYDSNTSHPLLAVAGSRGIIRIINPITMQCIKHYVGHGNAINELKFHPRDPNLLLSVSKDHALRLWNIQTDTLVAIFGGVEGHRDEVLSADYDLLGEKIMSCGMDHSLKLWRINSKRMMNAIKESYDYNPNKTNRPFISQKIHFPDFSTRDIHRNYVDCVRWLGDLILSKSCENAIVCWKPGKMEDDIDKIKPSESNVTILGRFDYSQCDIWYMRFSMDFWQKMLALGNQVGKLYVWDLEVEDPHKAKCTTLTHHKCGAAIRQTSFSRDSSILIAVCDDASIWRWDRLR
T5 sequence (Q15022 whole entry partner, species assumed): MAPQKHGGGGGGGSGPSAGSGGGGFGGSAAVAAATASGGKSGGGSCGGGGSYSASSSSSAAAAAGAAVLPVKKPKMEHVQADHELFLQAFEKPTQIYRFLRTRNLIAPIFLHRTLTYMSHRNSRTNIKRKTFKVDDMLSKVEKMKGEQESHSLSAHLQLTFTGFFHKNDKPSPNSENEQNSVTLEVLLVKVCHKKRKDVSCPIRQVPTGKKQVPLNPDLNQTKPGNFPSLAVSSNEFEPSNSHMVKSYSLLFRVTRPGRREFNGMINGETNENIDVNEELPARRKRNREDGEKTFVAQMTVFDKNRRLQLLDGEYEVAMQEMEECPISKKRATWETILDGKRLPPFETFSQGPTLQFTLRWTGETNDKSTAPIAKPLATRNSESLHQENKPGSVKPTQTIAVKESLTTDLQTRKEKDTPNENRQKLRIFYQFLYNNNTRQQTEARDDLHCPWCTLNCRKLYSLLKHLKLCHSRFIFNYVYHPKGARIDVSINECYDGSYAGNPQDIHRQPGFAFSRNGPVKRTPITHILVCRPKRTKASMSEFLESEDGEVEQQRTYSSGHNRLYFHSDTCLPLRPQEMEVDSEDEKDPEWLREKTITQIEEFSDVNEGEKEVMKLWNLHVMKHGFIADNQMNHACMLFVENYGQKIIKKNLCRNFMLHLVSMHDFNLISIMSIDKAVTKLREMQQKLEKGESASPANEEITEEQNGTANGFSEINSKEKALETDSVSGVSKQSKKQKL

EZH2 [7] = target: T5, EZH2; conditions: Table 19; cited from earlier work
[8] = Human In Vivo Conc listed for agents
LSD1 [9] = target: T1, LSD1; conditions: Table 18, LSD1; read-out: pKi or IC50 (converted); cited from earlier work
EZH-1 = EZH-1 (Homo sapiens, UniProt Q92800); conditions: Table 19; read-out: Select vs EZH-1; cited from earlier work
Sequence of EZH-1 (Q92800 whole entry, species assumed): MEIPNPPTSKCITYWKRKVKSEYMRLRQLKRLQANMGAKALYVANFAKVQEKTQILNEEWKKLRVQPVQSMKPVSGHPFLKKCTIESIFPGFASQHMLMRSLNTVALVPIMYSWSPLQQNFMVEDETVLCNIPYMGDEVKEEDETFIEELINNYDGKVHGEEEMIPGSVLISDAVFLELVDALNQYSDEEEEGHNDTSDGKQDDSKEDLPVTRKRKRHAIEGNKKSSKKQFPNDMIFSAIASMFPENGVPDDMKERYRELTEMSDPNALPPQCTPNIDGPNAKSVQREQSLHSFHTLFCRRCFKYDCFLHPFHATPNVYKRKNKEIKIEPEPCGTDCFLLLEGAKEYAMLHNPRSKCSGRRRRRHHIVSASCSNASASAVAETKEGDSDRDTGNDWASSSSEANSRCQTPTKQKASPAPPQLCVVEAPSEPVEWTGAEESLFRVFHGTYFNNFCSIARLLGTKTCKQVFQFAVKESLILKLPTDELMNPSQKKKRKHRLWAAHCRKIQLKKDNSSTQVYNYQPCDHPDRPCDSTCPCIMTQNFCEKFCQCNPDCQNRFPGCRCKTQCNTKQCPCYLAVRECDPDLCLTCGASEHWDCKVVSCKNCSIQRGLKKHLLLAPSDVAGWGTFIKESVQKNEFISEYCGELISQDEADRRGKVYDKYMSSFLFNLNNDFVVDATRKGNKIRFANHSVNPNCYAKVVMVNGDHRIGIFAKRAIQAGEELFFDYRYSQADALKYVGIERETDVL
Sequence of EZH-1 (O75530 whole entry partner, species assumed): as the sequence (O75530 whole entry partner, species assumed) above
Sequence of EZH-1 (Q15022 whole entry partner, species assumed): as the sequence (Q15022 whole entry partner, species assumed) above

[10] = cited from earlier work
DOT1L [11] = target: T3, DOT1L; conditions: Table 20; cited from earlier work
TAZ = conditions: Table 22; cited from earlier work
[12] = HDAC inhibitor table, upper end of the wrapped range 100 uM-4 mM, no test described
[13] = HDAC inhibitor table, upper end of the wrapped range 100 uM-4 mM
[14] = Table 14, listed concentration, no test described
[15] = Table 21, KDM 4, read-out: Select KDM 4
[16] = Table 20, listed concentration, no test described
[17] = Table 22, listed concentration, no test described

Compound: N[C@H]1CC[C@H](N[C@@H]2C[C@H]2c2ccccc2)CC1 (relative stereo) [ORY-1001]
Literat. Cell (LSD1 [1]): 0.5 to 3 nM
IC50 (MAO A): > 100000 nM

Perilymph Conc [2, 12]: ≤ 4000 µM
Compound: C#CCC(CCCCCC)C(=O)O (centres unmarked) [2-hexyl-4-pentynoic acid]
HDAC Potenc (HDAC): 13 µM
Lgr5+ Assay (Lgr5+ cells; [13]): ≤ 4000 µM

Perilymph Conc [2, 14]: 1 to 5 µM
Compound: N#Cc1ccc2[nH]c(O)c(-c3ccc(CN4CCOCC4)cn3)c2c1 [AZD 1080]
GSK-3 alpha (GSK-3 alpha): 6.9 nM

Compound: CC(C)c1c(-c2ccccc2)[nH]c2c(C#N)cnn2c1=O [CPI-455]
IC50 (KDM [3]; [15]): 41 nM
Lit Cell (KDM [4]): 0.09 µM

Compound: Cc1ncccc1-c1c(Cl)sc2ccc(NC(=O)NCC(=O)NCCCN(C)[C@@H]3CCCN(c4ncnc5[nH]ccc45)C3)cc12 [Compound 7]
IC50 (DOT1L [5]): < 1 nM

Compound: CNc1ccnc(Nc2ccc3cc(C)n(-c4ccccc4Oc4cnc5c(c4)ncn5C)c3c2)n1 [Compound 13]
IC50 (DOT1L [5]): 0.4 nM

Compound: Cn1cc(C(=O)Nc2ccc([C@@H]3C[C@H]3NCC3CC3)cc2)cn1 [Compound T-3775440]
IC50 (MAO A): 110000 nM
IC50 (MAO B): 17000 nM

Compound: N#Cc1c2c(c3nncn3c1NCc1ccco1)CN(Cc1ccccc1)CC2 [EED162]
IC50 (EZH2 [6]): 30 nM
Lit Cell Poten (EZH2 [7]): 80 nM

Perilymph Conc [2, 16]: 0.6 to 45 µM
Human In Vivo Conc ([8]; Table 20): 0.1 to 45 µM
Compound: CC(C)N(CCCNC(=O)Nc1ccc(C(C)(C)C)cc1)C[C@H]1O[C@@H](n2ccc3c(N)ncnc32)[C@H](O)[C@@H]1O [EPZ004777]
Lgr5+ Assay (Lgr5+ cells; Table 20): 0.6 to 45 µM

Compound: Cc1cc(C)c(CNC(=O)c2cc(-c3ccc(N4CCN(C)CC4)nc3)cc3c2cnn3C(C)C)c(=O)[nH]1 [GSK926]
IC50 (EZH2 [6]): 7.9 nM
Lit Cell Poten (EZH2 [7]): 324 nM

Perilymph Conc [2, 14]: 0.2 to 1 µM
Compound: Cc1ccc(C(=O)Nc2c[nH]nc2C(=O)NCCCOC(C)C)cn1 [GSK XXII]
GSK-3 alpha (GSK-3 alpha): 2.3 nM
Lgr5+ Assay (Lgr5+ cells; Table 14): 0.2 to 1 µM

Compound: Cc1ccc(-c2ncc(OC[C@@H]3CCNC3)cc2-c2ccc(C#N)cc2)cc1 [GSK-354]
Literat. Cell (LSD1 [1]): 1300 nM
IC50 (LSD1 [9]): 29 to 80 nM
IC50 (MAO B): 19000 nM

Compound: O=C(O)CCNc1cc(N2CCc3ccccc3CC2)nc(-c2ccccn2)n1 [GSK-J1]
Lit Cell (KDM [4]): 50 µM

Perilymph Conc [2, 12]: ≤ 4000 µM
Compound: O=C(O)CCCc1ccccc1 [Na phenylbutyrate]
HDAC Potenc (HDAC): 9 to 16 µM
Lgr5+ Assay (Lgr5+ cells; [13]): ≤ 4000 µM

Compound: COc1cc(C)[nH]c(=O)c1CN1CCc2c(Cl)cc([C@H](OC)C3COC3)c(Cl)c2C1=O [PF-06821497]
Perilymph Conc ([2]; Table 19): 0.001 to 0.1 µM
IC50 (EZH-1): 70 nM
IC50 (EZH2 [6]): < 1 nM
Lit Cell Poten (EZH2 [7]): 4 to 6 nM
Human In Vivo Conc ([10]; Table 19): 0.005 to 0.05 µM

Cmax ([8]; human, plasma, Table 18, value in brackets, converted): 73 to 440 nM
Compound: NNCCc1ccccc1 [Phenelzine sulfate]
Literat. Cell (LSD1 [1]): 900 nM

Perilymph Conc [2, 16]: 0.1 to 10 µM
Human In Vivo Conc ([8]; Table 20): (1-10 uM
Compound: CC(C)N(C[C@H]1O[C@@H](n2cnc3c(N)ncnc32)[C@H](O)[C@@H]1O)[C@H]1C[C@@H](CCc2nc3cc(C(C)(C)C)ccc3[nH]2)C1 [Pinometostat (EPZ-5676)]
Lit Cell (DOT1L [11]): 2.7 nM

Perilymph Conc [2, 16]: 0.6 to 5 µM
Human In Vivo Conc ([8]; Table 20): 0.1 to 5 µM
Compound: CC(C)N(CCCNC(=O)Nc1ccc(C(C)(C)C)cc1)C[C@H]1O[C@@H](n2cc(Br)c3c(N)ncnc32)[C@H](O)[C@@H]1O [SGC0946]
Lit Cell (DOT1L [11]): 10 nM

Perilymph Conc ([2]; Table 21): 0.12 to 10 µM
Compound: O=C(O)CCN(O)C(=O)CCCCCCCCC1CC1 [TC-E5002]
Human In Vivo Conc ([10]; Table 21): 0.12 to 10 µM
IC50 (KDM [3]; [15]): 83000 nM
IC50 (KDM [3]; Table 21, KDM 5, read-out: Select KDM 5): 55000 nM
IC50 (KDM [3]; Table 21, KDM 6, read-out: Select KDM 6): > 100000 nM
Lit Cell (KDM [4]): 1640 µM
Lgr5+ Assay (Lgr5+ cells; Table 21): 0.12 to 10 µM

Perilymph Conc [2, 17]: 10 to 100 µM
Compound: CCCCc1nc2cc(-c3cccnc3)c(C)nc2n1Cc1ccc(-c2ccccc2-c2nn[nH]n2)cc1 [TM-25659]
Lit Cell (TAZ): 10 to 100 µM
Lgr5+ Assay (Lgr5+ cells; Table 22): 10 to 100 µM

Perilymph Conc [2, 17]: 1 to 10 µM
Compound: C=CCNc1nc(N)c(C(=O)c2ccc(F)s2)s1 [TT10]
Lit Cell (TAZ): 1 µM
Lgr5+ Assay (Lgr5+ cells; Table 22): 1 to 10 µM

Perilymph Conc ([2]; Table 19): 0.37 to 1.1 µM
Human In Vivo Conc ([8]; Table 19, value in brackets, converted): (200-1600 nM)
Compound: CCN(c1cc(-c2ccc(CN3CCOCC3)cc2)cc(C(=O)NCc2c(C)cc(C)[nH]c2=O)c1C)C1CCOCC1 [Tazemetostat]
Human In Vivo Conc ([10]; Table 19): 100 to 800 ng/mL

Compound: CCCc1cc(C)[nH]c(=O)c1CNC(=O)c1cc(-c2ccc(N3CCN(C(C)C)CC3)nc2)cc2c1cnn2C(C)C [UNCI 999]
IC50 (EZH2 [6]): 10 nM
Lit Cell Poten (EZH2 [7]): 124 nM
Lgr5+ Assay (Lgr5+ cells; Table 19, result in words): Activity

Perilymph Conc ([2]; Table 19): 1 to 10 µM
Compound: CPI-169
IC50 (EZH-1): 6 nM
Human In Vivo Conc ([10]; Table 19): 1 to 10 µM
